One test relates to HepaRG cells. Description: HepaRG-based assay: 3H-taurocholic acid uptake in differentiated HepaRG cells. Type of test: cell-based. Particulars: Homo sapiens, HepaRG, 0.3 μM 3H-taurocholic acid and 7.5 μM cold taurocholic acid, 30 minutes. Here is the method:
HepaRG-Based Assay Protocol
A cryopreserved vial of differentiated HepaRG cells (Biopredic International HPR116080) was thawed in HepaRG Thawing/Plating/General Purpose Medium (Biopredic International ADD670C) supplemented with 200 mM Glutamax (Gibco 35050061) following the protocol provided by Biopredic International. 70,000 cells per well were seeded in 96-wells plate (Corning CLS3809) in 100 μL of HepaRG Thawing/Plating/General Purpose Medium supplemented with 200 mM Glutamax and incubated at 37° C. in 5% CO2 for 24 hours. Post incubation, the seeding media was replaced by HepaRG Maintenance/Metabolism Medium (Biopredic International ADD620C) and incubated for 6 days, with fresh HepaRG Maintenance/Metabolism Medium replenishment every 48 hours. After 7 days incubation post seeding, incubation media was decanted from the wells and cells were washed two times with 250 μL of William's E Basal Media (Gibco 12551032). After decanting William's E Basal Media each time, plates were tapped against paper towel to ensure maximum removal of residual media.
Incubation mix was prepared by adding test inhibitor dilutions (3-fold serial dilution in DMSO (Sigma D2650)) in William's E media (basal) containing 0.3 μM 3H-taurocholic acid (ARC ART-1368) and 7.5 μM cold taurocholic acid (Sigma T4009) (maintaining 0.2% final DMSO concentration). 50 μl of incubation mix containing test inhibitors was then added to the wells (in duplicate) and the plates were incubated for 30 minutes in 5% CO2 incubator at 37° C. After incubation, the reaction was stopped by keeping the plates on ice water mix for 2-3 minutes and then the incubation mix was aspirated completely from the wells. The wells were washed two times with 250 μL of chilled unlabelled 1 mM taurocholic acid dissolved in HEPES (Gibco 15630080)-buffered (10 mM) HBSS (Gibco 14175079) (pH 7.4). The plates were tapped against a paper towel after every wash to ensure maximum removal of blocking buffer.
(§1) 100 μL of MicroScint-20 (PerkinElmer 6013621) was added to the wells and kept overnight at room temperature before reading the plates in TopCount NXT™ Microplate Scintillation and Luminescence Counter from PerkinElmer under 3H Test protocol (set at 120 seconds reading time per well, with normal plate orientation).
(§2) Preparation of Test Compound Dilutions
(§3) All test compounds were provided in powder form at room temperature. 10 mM DMSO stocks of the test compounds were prepared, aliquoted and stored at −20° C. From the 10 mM DMSO stock of the compounds, a 3-fold serial dilution in DMSO was prepared to get a total of 10 dilutions of the test compounds. 0.5 μL of this dilution in DMSO was added to 250 μL of FBS-free basal media containing 3H-taurocholic acid and cold taurocholic acid to prepare the incubation mixture.

Another test has as its target T1, Human LBAT (Homo sapiens, UniProt Q14973).
T1 construct: expressed in transfected cells; kept under Geneticin selection
T1 sequence (Q14973 1-349): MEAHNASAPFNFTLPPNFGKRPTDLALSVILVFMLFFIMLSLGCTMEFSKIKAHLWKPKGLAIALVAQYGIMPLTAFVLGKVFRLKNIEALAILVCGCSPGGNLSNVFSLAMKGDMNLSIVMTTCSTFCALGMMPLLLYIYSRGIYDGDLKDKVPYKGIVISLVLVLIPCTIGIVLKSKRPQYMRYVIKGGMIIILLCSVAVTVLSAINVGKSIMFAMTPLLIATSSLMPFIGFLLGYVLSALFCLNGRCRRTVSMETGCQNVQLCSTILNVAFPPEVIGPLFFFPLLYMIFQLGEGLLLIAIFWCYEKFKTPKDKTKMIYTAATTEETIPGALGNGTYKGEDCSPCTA
Description: LBAT (h/m) assay: 3H-taurocholic acid uptake in human LBAT-overexpressing cells. Type of test: cell-based. Particulars: 0.3 μM 3H-taurocholic acid and 7.5 μM cold taurocholic acid, 20 minutes, read-out: hLBAT IC50. Here is the method: LBAT (h/m) Assay Protocol
20,000 cells (Human or Mouse LBAT-overexpressing cells) were seeded in 96-wells plate (Corning CLS3809) in 100 μL MEM-alpha medium (Gibco 12571-063) supplemented with 10% FBS (Gibco 10438026) containing Geneticin (Gibco 10131-027) (1 mg/mL) and incubated at 37° C. in 5% CO2 for 24 hours. After incubation, media was decanted from the wells and cells were washed two times with 300 μL of basal MEM-alpha medium (FBS-free). After decanting basal MEM-alpha medium each time, plates were tapped against paper towel to ensure maximum removal of residual media. For human LBAT, incubation mix was prepared by adding test inhibitor dilutions (3-fold serial dilution in DMSO (Sigma D2650), 10 points) in MEM-alpha (without FBS) containing 0.3 μM 3H-taurocholic acid (ARC ART-1368) and 7.5 μM cold taurocholic acid (Sigma T4009) (maintaining 0.2% final DMSO concentration). For mouse LBAT, incubation mix was prepared by adding test inhibitor dilutions (3-fold serial dilution in DMSO, 10 points) in MEM-alpha (without FBS) containing 0.3 μM 3H-taurocholic acid and 25 μM cold taurocholic acid maintaining 0.2% final DMSO concentration).
50 μL of incubation mix containing test inhibitors was then added to the wells (in duplicate) and the plates were incubated for 20 minutes in a CO2 incubator at 37° C. After incubation, the reaction was stopped by keeping the plates on ice water mix for 2-3 minutes and then the incubation mix was aspirated completely from the wells. The wells were washed two times with 250 μL of chilled unlabelled 1 mM taurocholic acid dissolved in HEPES (Gibco 15630080)-buffered (10 mM) HBSS (Gibco 14175079) (pH 7.4). The plates were tapped against a paper towel after every wash to ensure maximum removal of blocking buffer.
as §1, §2, §3

SMILES strings stand for the structures.

By IC50 is commonly meant the concentration that gives 50% inhibition. Turning to `CCCCC1(CC)CN(c2ccc(NC(=O)OC(C)(C)C)cc2)c2cc(Br)c(O/C=C/C(=O)O)cc2S(=O)(=O)C1` (centres unmarked) [Example 23, (E)-3-((7-bromo-5-(4-((tert-butoxycarbonyl)amino)phenyl)-3-butyl-3-ethyl-1,1-dioxido-2,3,4,5-tetrahydro-1,5-benzothiazepin-8-yl)oxy)acrylic Acid], the IC50 turned out to be 1200 nM in the test on HepaRG cells and 100 nM at Human LBAT.

In the case of `CCCCOC(=O)Nc1ccc(N2CC(CCCC)(CCCC)CS(=O)(=O)c3cc(O/C=C/C(=O)O)c(SC)cc32)cc1` [Example 29, (E)-3-((5-(4-((butoxycarbonyl)amino)phenyl)-3,3-dibutyl-7-(methylthio)-1,1-dioxido-2,3,4,5-tetrahydro-1,5-benzothiazepin-8-yl)oxy)acrylic Acid], the IC50 was 666 nM in the test with HepaRG cells and 205 nM on Human LBAT.

As to `CCCCC1(CCCC)CN(c2ccc(NC(=O)CC(C)(C)C)cc2)c2cc(SC)c(O/C=C/C(=O)O)cc2S(=O)(=O)C1` [Example 30, (E)-3-((3,3-dibutyl-5-(4-(3,3-dimethylbutanamido)phenyl)-7-(methylthio)-1,1-dioxido-2,3,4,5-tetrahydro-1,5-benzothiazepin-8-yl)oxy)acrylic Acid], the IC50 came to 336 nM in the test on HepaRG cells and 107 nM on Human LBAT.

Turning to `CCCCC1(CCCC)CN(c2ccc(NC(=O)C(C)C)cc2)c2cc(SC)c(O/C=C(\F)C(=O)O)cc2S(=O)(=O)C1` [Example 31, (Z)-3-((3,3-dibutyl-5-(4-isobutyramidophenyl)-7-(methylthio)-1,1-dioxido-2,3,4,5-tetrahydro-1,5-benzothiazepin-8-yl)oxy)-2-fluoroacrylic Acid], the IC50 was determined as 310 nM in the test with HepaRG cells and 17 nM on Human LBAT.

Take `CCCCC1(CCCC)CN(c2ccc(NC(=O)C(C)C)cc2)c2cc(SC)c(O/C=C/C(=O)O)cc2S(=O)(=O)C1` [Example 33, (E)-3-((3,3-dibutyl-5-(4-isobutyramidophenyl)-7-(methylthio)-1,1-dioxido-2,3,4,5-tetrahydro-1,5-benzothiazepin-8-yl)oxy)acrylic Acid]: the IC50 with HepaRG cells turned out to be 691 nM; at Human LBAT it was 214 nM.

As for `CCCCC1(CC)CN(c2ccc(NC(=O)C(C)(C)C)cc2)c2cc(SC)c(O/C=C/C(=O)O)cc2S(=O)(=O)C1` (centres unmarked) [Example 34, (E)-3-((3-butyl-3-ethyl-7-(methylthio)-1,1-dioxido-5-(4-pivalamidophenyl)-2,3,4,5-tetrahydro-1,5-benzothiazepin-8-yl)oxy)acrylic Acid], the IC50 in the test with HepaRG cells came to 469 nM; on Human LBAT it was 76 nM.

For the compound `CCCCC1(CCCC)CN(c2ccc(NC(=O)C3CCCC3)cc2)c2cc(SC)c(O/C=C(\F)C(=O)O)cc2S(=O)(=O)C1` [Example 35, (Z)-3-((3,3-dibutyl-5-(4-(cyclopentanecarboxamido)phenyl)-7-(methylthio)-1,1-dioxido-2,3,4,5-tetrahydro-1,5-benzothiazepin-8-yl)oxy)-2-fluoroacrylic Acid], the IC50 with HepaRG cells stood at 590 nM; at Human LBAT, 66 nM.

For `CCCCC1(CCCC)CN(c2ccc(NC(=O)C3CC3)cc2)c2cc(SC)c(O/C=C(\F)C(=O)O)cc2S(=O)(=O)C1` [Example 36, (Z)-3-((3,3-dibutyl-5-(4-(cyclopropanecarboxamido)phenyl)-7-(methylthio)-1,1-dioxido-2,3,4,5-tetrahydro-1,5-benzothiazepin-8-yl)oxy)-2-fluoroacrylic Acid], the IC50 with HepaRG cells is 877 nM; on Human LBAT it was 39 nM.

In the case of `CCCCC1(CC)CN(c2ccc(NC(=O)C3CCCC3)cc2)c2cc(SC)c(O/C=C/C(=O)O)cc2S(=O)(=O)C1` (centres unmarked) [Example 38, (E)-3-((3-butyl-5-(4-(cyclopentanecarboxamido)phenyl)-3-ethyl-7-(methylthio)-1,1-dioxido-2,3,4,5-tetrahydro-1,5-benzothiazepin-8-yl)oxy)acrylic Acid], the IC50 with HepaRG cells was found to be 454 nM; at Human LBAT it was 122 nM.

For the compound `CCC1(CC)CN(c2ccc(NC(=O)C(C)(C)C)cc2)c2cc(SC)c(O/C=C(\F)C(=O)O)cc2S(=O)(=O)C1` [Example 52, (Z)-3-((3,3-diethyl-7-(methylthio)-1,1-dioxido-5-(4-pivalamidophenyl)-2,3,4,5-tetrahydro-1,5-benzothiazepin-8-yl)oxy)-2-fluoroacrylic Acid], the IC50 in the test with HepaRG cells was 191 nM; on Human LBAT, 84 nM.

The values above are taken from patent US11306064B2, “Benzothia(di)azepine compounds and their use as bile acid modulators” (Albireo AB, priority 2018, dated 2022).
